According to ChEMBL document CHEMBL5338746, “New Generation of sGC Stimulators: Discovery of Imidazo[1,2-a]pyridine Carboxamide BAY 1165747 (BAY-747), a Long-Acting Soluble Guanylate Cyclase Stimulator for the Treatment of Resistant Hypertension” (J Med Chem, 2023):
Active and inactive are the calls of the source. The calls are words filed in the database; no cut-off is given here.

Assays:
[1] = target: T1, Soluble guanylate cyclase alpha1/beta1 complex (Rattus norvegicus) (UniProt P19686+P20595); experiment: Stimulation of recombinant rat sGC alpha1/beta1 expressed in CHO cells assessed as formation of cGMP from GTP by measuring concentration for >3-fold increase in the basal luminescence value by luminescence based analysis; format: cell-based; details: filed as activator
[2] = Metabolic stability in rat hepatocytes assessed as clearance measured upto 90 mins by LC-MS/MS analysis; format: ADME, cell-based, Hepatocyte
[3] = tested on: CHO; experiment: Stimulation of recombinant rat sGC alpha1/beta1 expressed in CHO cells assessed as formation of cGMP from GTP in presence of […] ODQ by measuring basal luminescence value by luminescence based analysis; format: cell-based; details: dose 300.0 nM, time 3.0 hrs
[4] = tested on: Aorta; experiment: Vasorelaxant activity in New Zealand White rabbits aortic rings assessed as reduction in phenylephrine-induced contraction measured after 30 mins; format: functional, tissue-based; details: Oryctolagus cuniculus, 0.5 h
[5] = target: T1, Soluble guanylate cyclase alpha1/beta1 complex (Rattus norvegicus); experiment: Stimulation of recombinant rat sGC alpha1/beta1 expressed in CHO cells assessed as formation of cGMP from GTP in presence of NO donor SNAP by measuring basal luminescence value by luminescence based analysis; format: cell-based; details: filed as activator, dose 300.0 nM

Compound | MEC [1] [µM] | CLhep predicted [2] [mL/min/kg] | IC50 [4] [nM] | Drug metabolism [5] | Drug metabolism [3]
CCCC[C@H](CO)NC(=O)c1c(C)nc2c(OCCC(C)C)cccn12 | 1 | 48.3 |  |  | 
CCCC[C@H](CO)NC(=O)c1c(C)nc2c(OCc3c(F)cccc3F)cc(F)cn12 | 0.03 | 51.7 |  |  | 
Cc1nc2c(OCC3CCC3)cccn2c1C(=O)NCc1ccc(Cl)cc1 | 1 | 60 | 840 | Active | inactive
Cc1nc2c(OCC3CCC3)cccn2c1C(=O)NCCOCCO | 3 | 25 |  |  | 
CCCC[C@H](CO)NC(=O)c1c(C)nc2c(OCc3ccccc3)cccn12 | 1 | 38.3 |  |  | 

The next lines start with results.

MEC [1] [µM] | CLhep predicted [2] [mL/min/kg] | IC50 [4] [nM] | Drug metabolism [5] | Compound | Drug metabolism [3]
0.01 | 48.3 |  |  | CCCC[C@H](CO)NC(=O)c1c(C)nc2c(OCc3c(F)cccc3F)cc(Cl)cn12 | 
0.01 | 56.7 |  |  | CCCC[C@H](CO)NC(=O)c1c(C)nc2c(OCc3c(F)cccc3F)cc(C)cn12 | 
1 | 51.7 |  |  | CCCC[C@H](CO)NC(=O)c1c(C)nc2c(OCc3c(F)cccc3F)cc(C3CC3)cn12 | 
0.3 | 36.7 |  |  | CCCC[C@H](CO)NC(=O)c1c(C2CC2)nc2c(OCc3c(F)cccc3F)cccn12 | 
